Experimental data from PMC10396310, “A succinate/SUCNR1-brush cell defense program in the tracheal epithelium” (Science Advances, 2023).

Target: T1, succinate receptor 1 (SUCNR1; GPR91) (Mus musculus, UniProt Q99MT6)
T1 construct: native receptor in tracheal TRPM5+ brush cells (ex vivo whole mount)
T1 sequence (Q99MT6 1-317): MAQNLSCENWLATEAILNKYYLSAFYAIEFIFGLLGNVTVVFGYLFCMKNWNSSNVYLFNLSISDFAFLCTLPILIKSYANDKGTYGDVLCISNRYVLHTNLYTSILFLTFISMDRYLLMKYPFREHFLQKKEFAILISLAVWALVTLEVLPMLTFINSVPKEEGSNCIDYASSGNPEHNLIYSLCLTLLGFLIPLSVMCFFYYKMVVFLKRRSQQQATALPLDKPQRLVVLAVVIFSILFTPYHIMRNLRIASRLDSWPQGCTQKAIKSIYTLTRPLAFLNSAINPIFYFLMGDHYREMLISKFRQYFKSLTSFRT
Test: Ca2+ imaging (GCaMP6f) concentration-response in brush cells; Ca2+ wave lost in Sucnr1-/- mice

- EC50: 335 ± 5 µM
Structure (SMILES): O=C(O)CCC(=O)O [succinate]
